≈ marks a conversion by molar mass, not a printed value. Calls of active or inactive are those of the source. The rule behind the calls is not given here.
Legend:
Nakaseomyces glabratus = experiment: Antifungal activity against Candida glabrata clinical isolate after 24 hr by NCCLS broth microdilution method; assay type: functional
Candida albicans [1] = experiment: Antifungal activity against Candida albicans clinical isolate after 24 hr by NCCLS broth microdilution method; assay type: functional
Pichia kudriavzevii = experiment: Antifungal activity against Pichia kudriavzevii NRRL Y-7179 after 24 hr by NCCLS broth microdilution method; assay type: functional; details: NRRL Y-7179, 24 h
Candida albicans [2] = experiment: Antifungal activity against Candida albicans NRRL Y-12983 after 24 hr by NCCLS broth microdilution method; assay type: functional; details: NRRL Y-12983, 24 h
Candida albicans [3] = experiment: Antifungal activity against Candida albicans ATCC 90028 after 24 hr by NCCLS broth microdilution method; assay type: functional; details: ATCC 90028, 24 h
Candida parapsilosis = experiment: Antifungal activity against Candida parapsilosis NRRL Y-12696 after 24 hr by NCCLS broth microdilution method; assay type: functional; details: Lodderomyces parapsilosis, NRRL Y-12696, 24 h
Candida tropicalis [4] = experiment: Antifungal activity against Candida tropicalis NRRL Y-12968 after 24 hr by NCCLS broth microdilution method; assay type: functional; details: NRRL Y-12968, 24 h
Cyberlindnera jadinii = experiment: Antifungal activity against Cyberlindnera jadinii NRRL Y-900 after 24 hr by NCCLS broth microdilution method; assay type: functional; details: Williopsis jadinii, NRRL Y-900, 24 h
SK-OV-3 = experiment: Cytotoxicity against Homo sapiens (human) SKOV3 cells assessed as cell viability up to 25 ug/ml after 48 hr by neutral red assay; assay type: functional, cell-based
Transcription factor Sp1 = Transcription factor Sp1 (Homo sapiens, UniProt P08047); experiment: Inhibition of Sp1 (unknown origin) up to 25 ug/ml by luciferase reporter gene assay
[5] = target: T1, Nitric oxide synthase, inducible (Mus musculus) (UniProt P29477); experiment: Inhibition of iNOS in Mus musculus (mouse) RAW264.7 cells assessed as inhibition of LPS-induced nitrite production up to 25 ug/ml incubated for 30 min prior to LPS challenge measured after 24 hr by Griess assay relative to vehicle-treated control; assay type: cell-based
T1 sequence (whole entry): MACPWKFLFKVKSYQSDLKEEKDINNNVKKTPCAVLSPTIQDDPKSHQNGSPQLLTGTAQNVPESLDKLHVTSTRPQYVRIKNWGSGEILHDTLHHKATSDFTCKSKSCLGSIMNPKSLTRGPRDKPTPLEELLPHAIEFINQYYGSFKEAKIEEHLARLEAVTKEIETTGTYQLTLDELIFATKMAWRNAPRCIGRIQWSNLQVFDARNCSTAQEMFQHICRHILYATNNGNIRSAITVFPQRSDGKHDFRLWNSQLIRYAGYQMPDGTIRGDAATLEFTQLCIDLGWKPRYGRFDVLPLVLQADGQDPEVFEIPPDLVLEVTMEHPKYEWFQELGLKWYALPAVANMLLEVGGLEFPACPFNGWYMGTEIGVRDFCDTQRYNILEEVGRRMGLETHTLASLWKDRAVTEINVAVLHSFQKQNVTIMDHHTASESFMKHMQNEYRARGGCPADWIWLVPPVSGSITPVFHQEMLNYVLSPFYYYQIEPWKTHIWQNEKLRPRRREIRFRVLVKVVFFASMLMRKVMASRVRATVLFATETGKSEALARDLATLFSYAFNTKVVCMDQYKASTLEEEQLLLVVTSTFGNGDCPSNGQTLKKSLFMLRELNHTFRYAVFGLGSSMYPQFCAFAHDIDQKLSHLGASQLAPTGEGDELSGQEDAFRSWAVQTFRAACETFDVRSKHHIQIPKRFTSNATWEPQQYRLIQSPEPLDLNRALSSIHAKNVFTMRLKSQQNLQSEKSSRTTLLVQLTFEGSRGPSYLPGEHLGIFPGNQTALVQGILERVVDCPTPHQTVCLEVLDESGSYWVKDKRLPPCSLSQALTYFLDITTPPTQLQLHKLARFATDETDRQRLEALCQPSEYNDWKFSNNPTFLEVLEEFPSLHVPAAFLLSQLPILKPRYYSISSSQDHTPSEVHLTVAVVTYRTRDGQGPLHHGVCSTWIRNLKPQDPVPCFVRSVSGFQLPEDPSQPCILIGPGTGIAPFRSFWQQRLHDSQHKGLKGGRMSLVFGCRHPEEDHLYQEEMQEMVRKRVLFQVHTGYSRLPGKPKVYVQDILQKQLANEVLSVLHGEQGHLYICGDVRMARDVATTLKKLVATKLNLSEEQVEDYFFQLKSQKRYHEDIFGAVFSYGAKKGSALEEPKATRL

Candida albicans [6] = experiment: Antifungal activity against Candida albicans clinical isolate at 2000 ug/ml by agar diffusion method; assay type: functional; details: read-out: IZ
Vero = experiment: Cytotoxicity against Chlorocebus aethiops (African green monkey) Vero cells assessed as cell viability up to 25 ug/ml after 48 hr by neutral red assay; assay type: cell-based; details: chlorocebus sabaeus
HL-60 [7] = experiment: Antioxidant activity in PMA-stimulated Homo sapiens (human) HL60 cells assessed as inhibition of intracellular ROS generation up to 25 ug/ml incubated for 30 min prior to PMA stimulation measured after 30 min by DCFH-DA assay relative to vehicle-treated control; assay type: functional, cell-based
[8] = Cytotoxicity against Sus scrofa (pig) LLC-PK11 cells assessed as cell viability up to 25 ug/ml after 48 hr by neutral red assay; assay type: cell-based; details: llc-pk11, 48 h
BT-549 = experiment: Cytotoxicity against Homo sapiens (human) BT549 cells assessed as cell viability up to 25 ug/ml after 48 hr by neutral red assay; assay type: functional, cell-based
KB = experiment: Cytotoxicity against Homo sapiens (human) KB cells assessed as cell viability up to 25 ug/ml after 48 hr by neutral red assay; assay type: functional, cell-based
Candida tropicalis [9] = experiment: Antifungal activity against Candida tropicalis NRRL Y-12968 at 2000 ug/ml by agar diffusion method; assay type: functional; details: read-out: IZ
HL-60 [10] = experiment: Cytotoxicity against Homo sapiens (human) HL60 cells up to 25 ug/ml; assay type: cell-based
SK-MEL = experiment: Cytotoxicity against Homo sapiens (human) SK-MEL cells assessed as cell viability up to 25 ug/ml after 48 hr by neutral red assay; assay type: functional, cell-based
RAW264.7 = experiment: Cytotoxicity against Mus musculus (mouse) RAW264.7 cells up to 25 ug/ml; assay type: cell-based
SW1353 = experiment: Inhibition of PMA-induced NFkappaB activity in Homo sapiens (human) SW1353 cells up to 25 ug/ml incubated for 30 min followed by PMA induction for 8 hr by luciferase reporter gene assay; assay type: cell-based
Botrytis cinerea = experiment: Antifungal activity against Botryotinia fuckeliana at 0.3 to 30 uM after 48 to 72 hr by broth microdilution method; assay type: functional, organism-based
Colletotrichum fragariae = experiment: Antifungal activity against Colletotrichum fragariae at 0.3 to 30 uM after 48 to 72 hr by broth microdilution method; assay type: functional, organism-based
[11] = target: T2, Nitric oxide synthase, inducible (Mus musculus, UniProt P29477); experiment: Inhibition of iNOS in Mus musculus (mouse) RAW264.7 cells assessed as inhibition of LPS-induced nitrite production incubated for 30 min prior to LPS challenge measured after 24 hr by Griess assay; assay type: cell-based
T2 sequence (P29477 whole entry): T1 sequence (whole entry)

HL-60 [12] = experiment: Cytotoxicity against Homo sapiens (human) HL60 cells; assay type: cell-based

Chain of Transcription factor Sp1 (P08047 whole entry): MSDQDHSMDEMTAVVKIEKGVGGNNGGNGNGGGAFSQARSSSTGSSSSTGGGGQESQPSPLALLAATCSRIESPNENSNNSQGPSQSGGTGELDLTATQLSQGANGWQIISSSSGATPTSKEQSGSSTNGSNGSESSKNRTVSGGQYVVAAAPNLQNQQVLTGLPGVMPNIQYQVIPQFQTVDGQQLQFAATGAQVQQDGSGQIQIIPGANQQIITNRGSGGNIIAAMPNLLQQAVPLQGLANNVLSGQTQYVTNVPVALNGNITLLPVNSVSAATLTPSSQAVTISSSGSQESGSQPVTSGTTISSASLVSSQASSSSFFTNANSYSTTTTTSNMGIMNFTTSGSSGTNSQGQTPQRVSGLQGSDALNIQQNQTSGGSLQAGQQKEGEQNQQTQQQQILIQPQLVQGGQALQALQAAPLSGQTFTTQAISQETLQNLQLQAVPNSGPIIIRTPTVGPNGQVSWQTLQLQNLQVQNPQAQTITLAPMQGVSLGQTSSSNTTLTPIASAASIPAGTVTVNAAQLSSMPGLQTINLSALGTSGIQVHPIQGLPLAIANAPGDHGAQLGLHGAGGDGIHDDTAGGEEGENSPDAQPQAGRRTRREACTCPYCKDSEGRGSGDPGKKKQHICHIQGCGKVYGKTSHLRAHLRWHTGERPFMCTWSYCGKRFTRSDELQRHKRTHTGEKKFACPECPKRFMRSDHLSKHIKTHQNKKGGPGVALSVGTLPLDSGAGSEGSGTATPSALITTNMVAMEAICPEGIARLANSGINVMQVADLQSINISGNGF

Structure (SMILES)	MIC (Nakaseomyces glabratus) [µg/mL]	MIC (Candida albicans [1]) [µg/mL]	MIC (Pichia kudriavzevii) [µg/mL]	MIC (Candida albicans [2]) [µg/mL]	MIC (Candida albicans [3]) [µg/mL]	MIC (Candida parapsilosis) [µg/mL]	MIC (Candida tropicalis [4]) [µg/mL]	MIC (Cyberlindnera jadinii) [µg/mL]	inhibition (INH) (Transcription factor Sp1)	Activity (SK-OV-3)	zone of inhibition at 2000 µg/mL (Candida albicans [6]) [mm]	Activity (Vero)	inhibition (HL-60 [7])	Activity [8]	Activity (BT-549)	Activity (KB)	zone of inhibition at 2000 µg/mL (Candida tropicalis [9]) [mm]	Activity (SK-MEL)	Activity (RAW264.7)	inhibition (SW1353)	other results
CC(=O)N1CCN(c2ccc(OCC3COC(Cn4ccnc4)(c4ccc(Cl)cc4Cl)O3)cc2)CC1 (centres undefined) [KETOCONAZOLE]	31 (≈ 58.3 µM)	16 (≈ 30.1 µM)	62 (≈ 117 µM)	125 (≈ 235 µM)	62 (≈ 117 µM)	125 (≈ 235 µM)	62 (≈ 117 µM)	62 (≈ 117 µM)													
COc1cccc2c1C(=O)c1c(O)c3c(c(O)c1C2=O)C[C@@](O)(C(=O)CO)C[C@@H]3O[C@H]1C[C@H](N)[C@H](O)[C@H](C)O1 [DOXORUBICIN]																					IC50 (HL-60 [12]): 0.16 µg/mL (≈ 0.294 µM)
CC(=O)N1N=C(c2ccc(F)cc2)OC1c1ccc(F)cc1 (centres undefined)	500 (≈ 1650 µM)	500 (≈ 1650 µM)	500 (≈ 1650 µM)	500 (≈ 1650 µM)	500 (≈ 1650 µM)	500 (≈ 1650 µM)	500 (≈ 1650 µM)	500 (≈ 1650 µM)	Not Active	inactive	9	Not Active	inactive	Not Active	inactive	inactive	9	inactive	Non-toxic	inactive	inhibition [5]: inactive; Activity (HL-60 [10]): Non-toxic
CC(=O)N1N=C(c2ccc(F)cc2)OC1c1ccccc1 (centres undefined)	1000 (≈ 3520 µM)	500 (≈ 1760 µM)	1000 (≈ 3520 µM)	500 (≈ 1760 µM)	1000 (≈ 3520 µM)	1000 (≈ 3520 µM)	1000 (≈ 3520 µM)	1000 (≈ 3520 µM)	Not Active	inactive	9	Not Active	inactive	Not Active	inactive	inactive	9	inactive	Non-toxic	inactive	IC50 (HL-60 [12]): 31.3 µg/mL (≈ 110 µM); Activity (Botrytis cinerea): inactive; Activity (Colletotrichum fragariae): inactive; IC50 [11]: > 87.9 µM
CC(=O)N1N=C(c2ccc(F)cc2)OC1c1ccc(Br)cc1 (centres undefined)	500 (≈ 1380 µM)	250 (≈ 688 µM)	500 (≈ 1380 µM)	500 (≈ 1380 µM)	1000 (≈ 2750 µM)	500 (≈ 1380 µM)	250 (≈ 688 µM)	500 (≈ 1380 µM)	Not Active	inactive	9	Not Active	inactive	Not Active	inactive	inactive	9	inactive	Non-toxic	inactive	Activity (HL-60 [10]): Non-toxic; Activity (Botrytis cinerea): inactive; Activity (Colletotrichum fragariae): inactive; IC50 [11]: > 68.8 µM
CN(C)c1ccc(/C=C/C=N/NC(=O)c2ccc(F)cc2)cc1	500 (≈ 1610 µM)	500 (≈ 1610 µM)	500 (≈ 1610 µM)	500 (≈ 1610 µM)	500 (≈ 1610 µM)	500 (≈ 1610 µM)	500 (≈ 1610 µM)	500 (≈ 1610 µM)	Not Active	inactive	9	Not Active	inactive	Not Active	inactive	inactive	9	inactive	Non-toxic	inactive	inhibition [5]: inactive; Activity (HL-60 [10]): Non-toxic

Second part, led by results:

MIC (Nakaseomyces glabratus) [µg/mL]	MIC (Candida albicans [1]) [µg/mL]	MIC (Pichia kudriavzevii) [µg/mL]	MIC (Candida albicans [2]) [µg/mL]	MIC (Candida albicans [3]) [µg/mL]	MIC (Candida parapsilosis) [µg/mL]	MIC (Candida tropicalis [4]) [µg/mL]	MIC (Cyberlindnera jadinii) [µg/mL]	inhibition (INH) (Transcription factor Sp1)	Structure (SMILES)	Activity (SK-OV-3)	zone of inhibition at 2000 µg/mL (Candida albicans [6]) [mm]	Activity (Vero)	inhibition (HL-60 [7])	Activity [8]	Activity (BT-549)	Activity (KB)	zone of inhibition at 2000 µg/mL (Candida tropicalis [9]) [mm]	Activity (SK-MEL)	Activity (RAW264.7)	inhibition (SW1353)	other results
250 (≈ 795 µM)	250 (≈ 795 µM)	500 (≈ 1590 µM)	500 (≈ 1590 µM)	500 (≈ 1590 µM)	500 (≈ 1590 µM)	500 (≈ 1590 µM)	250 (≈ 795 µM)	Not Active	COc1ccc(C2OC(c3ccc(F)cc3)=NN2C(C)=O)cc1 (centres undefined)	inactive	9	Not Active	inactive	Not Active	inactive	inactive	9	inactive	Non-toxic	inactive	inhibition [5]: inactive; Activity (HL-60 [10]): Non-toxic
500 (≈ 1530 µM)	250 (≈ 764 µM)	500 (≈ 1530 µM)	500 (≈ 1530 µM)	500 (≈ 1530 µM)	1000 (≈ 3050 µM)	500 (≈ 1530 µM)	500 (≈ 1530 µM)	Not Active	CC(=O)N1N=C(c2ccc(F)cc2)OC1c1ccc(N(C)C)cc1 (centres undefined)	inactive	9	Not Active	inactive	Not Active	inactive	inactive	9	inactive	Non-toxic	inactive	Activity (HL-60 [10]): Non-toxic; Activity (Botrytis cinerea): inactive; Activity (Colletotrichum fragariae): inactive; IC50 [11]: 61.1 µM
500 (≈ 1410 µM)	500 (≈ 1410 µM)	125 (≈ 354 µM)	500 (≈ 1410 µM)	500 (≈ 1410 µM)	250 (≈ 707 µM)	125 (≈ 354 µM)	250 (≈ 707 µM)	Not Active	CC(=O)N1N=C(c2ccc(F)cc2)OC1/C=C/c1ccc(N(C)C)cc1 (centres undefined)	inactive	9	Not Active	inactive	Not Active	inactive	inactive	9	inactive	Non-toxic	inactive	inhibition [5]: inactive; Activity (HL-60 [10]): Non-toxic
